Earlier results in article PMC11505029, “Isatin Bis-Imidathiazole Hybrids Identified as FtsZ Inhibitors with On-Target Activity Against Staphylococcus aureus” (Antibiotics, 2024).

Legend:
Design in all cases: method as in PMID 36144518
E. coli ATCC 25922 = details: 100 μM; mean ± SD; cited from earlier work
S. aureus ATCC 25923 = details: cited from earlier work
C. albicans ATCC 10231 = details: 100 μM; mean ± SD; cited from earlier work
[1] = system: Vero cell line (ATCC CCL-81); details: 100 μM; mean ± SD; cited from earlier work

SMILES: COc1ccc2c(c1)C(c1c(Cl)nc3sccn13)(c1c(Cl)nc3sccn13)C(=O)N2 [Compound 6k]
- Microbial growth, E. coli (E. coli ATCC 25922): 102.7 ± 2.4%
- Microbial growth, S. aureus (S. aureus ATCC 25923; 100 μM, mean ± SD): 43.4 ± 5.6%
- IC50 (S. aureus ATCC 25923; S. aureus, lead compounds): 80 µM
- Microbial growth, C. albicans (C. albicans ATCC 10231): 104.1 ± 1.9%
- Cell proliferation, Vero [1]: 70.9 ± 5.6%
